Counter-ions that a name gives are not always drawn. Like-named read-outs stand apart in the source and are kept apart here.
What was measured:
[1] = for ln k: converted from log Kobs
Method: Specifically, a graph of FIG. 185 on page 95 of the publication was cited. FIG. 1 is an Arrhenius plot of degradation of thiamine hydrochloride in a vitamin complex liquid agent, the Y axis indicates log Kobs (day^−1), and the X axis indicates 1/T (K^1). The stable periods were calculated based on the activation energy for degradation of thiamine hydrochloride in the vitamin complex liquid agent, shown in the graph.
In FIG. 1, the Y axis is indicated by not ln, but log. Therefore log Kobs was converted into ln k.
Then, −Ea/R and ln A were calculated from the ln k and 1/T (K^−1) on the X axis of FIG. 1 based on the Arrhenius equation represented by the formula (1) below.

[2] = degradation in vitamin complex liquid agent, cited from earlier work

ln k ([1]; T 20.0 ° C.): −9.4406 | ln k ([1]; T 22.5 ° C.): −8.635 | ln k ([1]; T 29.1 ° C.): −7.829 | ln k ([1]; T 38.7 ° C.): −6.6775 | ln k ([1]; T 50.0 ° C.): −5.296 | ln k ([1]; T 57.6 ° C.): −4.0986 | ln k ([1]; T 67.7 ° C.): −2.993 | ln A ([1]; intercept b of Arrhenius equation from ln k and 1/T (K^−1)): 35.139 | −Ea/R ([1]; slope a of Arrhenius equation from ln k and 1/T (K^−1)): −13005
SMILES: Cc1ncc(C[n+]2csc(CCO)c2C)c(N)n1 [thiamine hydrochloride]
Kobs ([2]; T 20.0 ° C.): 0.000 day⁻¹ | log10k ([2]; T 20.0 ° C.): −4.100 | Kobs ([2]; T 22.5 ° C.): 0.000 day⁻¹ | log10k ([2]; T 22.5 ° C.): −3.750 | Kobs ([2]; T 29.1 ° C.): 0.000 day⁻¹ | log10k ([2]; T 29.1 ° C.): −3.400 | Kobs ([2]; T 38.7 ° C.): 0.001 day⁻¹ | log10k ([2]; T 38.7 ° C.): −2.900 | Kobs ([2]; T 50.0 ° C.): 0.005 day⁻¹ | log10k ([2]; T 50.0 ° C.): −2.300 | Kobs ([2]; T 57.6 ° C.): 0.017 day⁻¹ | log10k ([2]; T 57.6 ° C.): −1.780 | Kobs ([2]; T 67.7 ° C.): 0.050 day⁻¹ | log10k ([2]; T 67.7 ° C.): −1.300
